# Assay results taken from patent publication US3954776A, “1-[Methylated piperidino(and pyrrolidin-1-yl)]-3-(substituted phenoxy)-2propanols” (Yoshitomi Pharmeceutical Industries, Ltd., priority 1973, dated 1976).
# Where a name gives a salt, the structure may show the parent alone.
# Key:
# [1] = tested on: isolated guinea pig atria; assay: Antiarrhythmic action on functional refractory period; assay type: cell-based; conditions: method of Zetler et al; for EC50: Cavia porcellus
# Method: 1. Antiarrhythmic action on functional refractory period
# The test was performed essentially by the method described by G. Zetler et al in "Naunyn-Schmiedebergs Archiv fur Pharmakologie", vol. 271, 335-345 (1971), using isolated guinea pig atria.
# [2] = tested on: guinea pig; assay: Surface anaesthetic action; assay type: in vivo; conditions: relative to procaine = 1; guinea pig (male, about 400 g); method of Chance et al
# Method: 3. Surface anaesthetic action
# The test was performed essentially by the method described by M.R.A. Chance et al in "Journal of Pharmacology and Experimental Therapeutics", vol. 82, 203-210 (1944), using guinea pig (male, about 400 g).
# [3] = tested on: guinea pig; assay: Infiltration anaesthetic action; assay type: in vivo; conditions: relative to procaine = 1; guinea pig (male, about 400 g); method of Bulbring et al
# Method: 2. Infiltration anaesthetic action
# The test was performed essentially by the method described by E. Bulbring et al in "Journal of Pharmacology and Experimental Therapeutics", vol. 85, 78-84 (1945), using guinea pig (male, about 400 g).
smiles,measurement,setting,value
CC1CCCC(C)N1CC(O)COc1ccccc1OCc1cccs1 (centres unmarked) [G],EC50,[1],18 µg/mL
same,"Efficiency Rate (procaine = 1), surface anaesthetic action",[2],23.6
COCCOc1ccccc1OCC(O)CN1C(C)(C)CCCC1(C)C (centres unmarked) [A],EC50,[1],24 µg/mL
"Cc1ccccc1OCC(O)CN1C(C)(C)CCC1(C)C (centres unmarked) [Lotucaine, 1-(2,2,5,5-tetramethylpyrrolidin-1-yl)-3-(o-tolyloxy)-2-propanolhydrochloride, reference compound]",EC50 (antiarrhythmic action on functional refractory period),[1],no effect
same,"Efficiency Rate (procaine = 1), infiltration anaesthetic action",[3],11.3
same,"Efficiency Rate (procaine = 1), surface anaesthetic action",[2],11.1
CC1(C)CCCC(C)(C)N1CC(O)COc1ccccc1Cc1cccs1 (centres unmarked) [J],"Efficiency Rate (procaine = 1), infiltration anaesthetic action",[3],35.6
CC1(C)CCCC(C)(C)N1CC(O)COc1ccccc1Cc1ccccn1 (centres unmarked) [E],EC50,[1],22 µg/mL
CC1(C)CCCC(C)(C)N1CC(O)COc1ccccc1OCc1ccco1 (centres unmarked) [H],"Efficiency Rate (procaine = 1), infiltration anaesthetic action",[3],51.7
CC1(C)CCCC(C)(C)N1CC(O)COc1ccccc1OCC1CCCO1 (centres unmarked) [B],EC50,[1],17 µg/mL
same,"Efficiency Rate (procaine = 1), surface anaesthetic action",[2],26.7
CC1(C)CCCC(C)(C)N1CC(O)COc1ccccc1Oc1ccccn1 (centres unmarked) [F],EC50,[1],12 µg/mL
CC1CCCC(C)N1CC(O)COc1ccccc1Cc1cccs1 (centres unmarked) [I],"Efficiency Rate (procaine = 1), infiltration anaesthetic action",[3],98.7
same,"Efficiency Rate (procaine = 1), surface anaesthetic action",[2],27.1
CSCCOc1ccccc1OCC(O)CN1C(C)(C)CCCC1(C)C (centres unmarked) [D],EC50,[1],15 µg/mL
same,"Efficiency Rate (procaine = 1), surface anaesthetic action",[2],27.2
CC1(C)CCC(C)(C)N1CC(O)COc1ccccc1OCc1ccco1 (centres unmarked) [C],EC50,[1],13 µg/mL
same,"Efficiency Rate (procaine = 1), surface anaesthetic action",[2],30.0
CC1CCCCN1CC(O)COc1ccc(Cc2cccs2)cc1 (centres unmarked) [L],"Efficiency Rate (procaine = 1), surface anaesthetic action",[2],23.9
CC1CCCCN1CC(O)COc1ccccc1Cc1cccs1 (centres unmarked) [K],"Efficiency Rate (procaine = 1), infiltration anaesthetic action",[3],167.5
